In patent US11040056B2, “Benzimidazoles that enhance the activity of oligonucleotides” (The University of North Carolina at Chapel Hill, priority 2018, dated 2021):

Legend:
Format in all cases: cell-based
HeLa Luc705 cells = test: Alamar Blue cytotoxicity assay
Procedure: (§1) FIG. 1B-1E. Effects with SSOs. FIG. 1B Structure of UNC2383. FIG. 1C Compound 2383 enhances SSO effects. Cells were incubated in 24-well plates with 100 nM SSO623 or its mismatched control (MM) for 16 h in DMEM+10% FBS, rinsed and then treated with various concentrations of 2383 for 2 h. The cells were then rinsed and incubation continued for an additional 4 h in DMEM+10% FBS. Cells were rinsed twice in PBS and luciferase activity (RLU) and cell protein determined. The larger round symbol indicates the MM oligonucleotide. Means+/−SE. N=3. FIG. 1D Kinetics of 2383 action. Cells were preloaded with 100 nM SSO623 and then exposed to 2383 for various periods after which the compound was removed. The cells were further incubated and then luciferase and protein determined. The total time of incubation in each case was 6 h. FIG. 1E Cytotoxicity of 2383. HeLa Luc705 or NIH-3T3-MDR cells were exposed to 2383 as in (FIG. 1C) then incubated for 24 h in DMEM plus 10% FBS and tested using the Alamar Blue cytotoxicity assay. Means+/−SE. N=3.
(§2) FIG. 3. Effect and Cytotoxicity of Analogs. The effect of selected UNC2383 analogs on luciferase induction by SSO623 was measured as described in Methods and in the legend of FIG. 1B-1E. Cytotoxicity was measured using the Alamar Blue method as in FIG. 1E. MM10 is the effect of 10 uM compound in the presence of a mismatched oligonucleotide. Means and SE. N=3.
(§3) SSO-mediated luciferase induction assays were conducted as previously described. (18) In short, HeLaLuc705 cells in 24 well culture plates were preincubated with SSO623 followed by brief treatment with the small molecule; at intervals thereafter, luciferase activity and protein content were determined. ASO mediated inhibition of MDR1 gene expression utilized an Alexa 488 labeled anti-P-glycoprotein antibody and flow cytometry to measure Pgp expression as described. (20) The anti-MDR1 sequence is 5′-CCATCccgacctcgcGCTCC-3′(SEQ ID NO: 5) (all phosphorothiopate with 2-O-Me residues in capitals). Cytotoxicity of 2383 was monitored using the Alamar Blue assay. (30)

[1] = Alamar Blue cytotoxicity assay; settings: human, HeLa Luc705 cells; Alamar Blue cytotoxicity; read-out: TC50
Procedure: as §1, §2, §3

[2] = system: CFTR channel activity in human bronchial epithelial cells (HBEC) from a 3849+10 kbC-T homozygous patient; test: Ussing chamber analysis of CFTR function in 3849+10 kbC-T HBEC
From the text: FIG. 11. CFTR activity restored to CF splicing mutation 3849+10 kbC-T using SSOs. SSOs were delivered in vitro by electroporation (˜100% efficiency), CF primary cells were differentiated on permeable supports and tested. Panel A. PCR analysis. The lower band is the correctly spliced CFTR. Panel B. Functional correction by Ussing chamber analysis.
FIG. 12. OEC Mediated Delivery of a SSO in 3849+10 kbC-T HBEC. Well-differentiated human bronchial epithelial cells (HBEC) derived from a 3849+10 kbC-T homozygous patient were incubated with corrective (LNA) SSO A from FIG. 1 (1 uM, overnight). Cells were then incubated with OEC UNC2383 in the luminal or serosal bath (4 uM, 2 hs). Both the SSO and OEC were added in cell growing medium. Seventy two hour later, HBEC were analyzed in Ussing chamber for CFTR function. Orkambi® was tested in parallel inserts.
Results: In vitro studies were performed in well-differentiated HBEC cells derived from a homozygous 3849+10 kbC→T CF patient (CF HBEC) treated with one dose of a specific SSO (1 uM, 12 hs) followed by one dose of OEC (apical or basolateral delivery, 2-4 uM, 2-3 hs). A significant increase of forskolin-stimulated CFTR activity in Ussing chamber analyses was observed 24-96 hs after SSO+OEC treatment compared to SSO alone treatment or vehicle. OEC was efficacious delivered apically as well as basolaterally. Transepithelial resistance and microscopy tests were implemented to monitor cytotoxicity, which was negligible for both SSO and OEC (FIG. 12). In vivo studies were performed in a transgenic mouse model that has a SSO-inducible EGFP reporter.
SSOs (100 nM) were introduced in airway epithelial cells derived from a 3849+10 kbC-T homozygous CF patient in suspension by electroporation using the Neon system, program A4. Cells were differentiated for 2 weeks in culture on human collagen-coated permeable supports (Millipore) before being tested in Ussing chambers following methods described in Kreda et al. […] “Characterization of Wild-Type and ΔF508 Cystic Fibrosis Transmembrane Regulator in Human Respiratory Epithelia” Mol. Biol. Cell 16(5):2154-2167 (100 uM Amiloride, Amil; 10 uM Forskolin, Fsk; 20 uM CFTR inhibitor 172). After Ussing chamber analysis, cells were lysed and assayed for RT-PCR as described in Wang et al 2017 (FIG. 11).
(SEQ ID NO:2), C (5′+G*mA*mG*mU*+C*mU*mU**mU*mA*+C*mU*mC*mA*mC*mC*+A*mU*mU*mU) (SEQ ID NO:3) (Locked Nucleic Acid (LNA)=+, PS=*, 2′OMe=m). In SSO sequences A, B, and C the underlined bases indicate oligo bases that match up to the bases in the mutated splice site in the 3849+10 kb C-T CFTR splicing mutation. MM623 or SSO623 sequences are described herein. […]

SMILES: O=C(Nc1nc2ccccc2n1CCN1CCCC1)c1cc2cc(Cl)ccc2o1 [UNC2383]
- window between effective and toxic concentrations compared to UNC10217938 (HeLa Luc705 cells): narrower
- concentrations showing little toxicity (HeLa Luc705 cells; 2 h exposure, then 24 h, FIG. 1E): ≤ 10 µM
- TC50/EC50 (HeLa Luc705 cells; ratio of cytotoxicity TC50 to luciferase induction EC50): 7.5
- CC50 at 2 h [1]: 15 µM
- CFTR channel activity / functional correction ([2]; SSO A 1 uM overnight, OEC 4 uM 2 hs luminal or serosal, 72 h, approved drugs in parallel): significant enhancement
- oligonucleotide enhancing activity in human airway epithelial cells ([2]; in vitro): negligible activity
